In patent publication US12448388B2, “PRMT5 inhibitors and uses thereof” (Gilead Sciences, Inc., priority 2023, dated 2025):

The compounds below were run on HCT116 MTAP-deleted cell lines (assay: Cell viability assay (CellTiter-Glo, 7 days), HCT116 MTAP-deleted). Conditions: Homo sapiens, HCT-116; cell viability assay, HCT116 MTAP-deleted; class symbols; read-out: CC50.
Assay type: cell-based
How it was run: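 Read-out was CellTiter-Glo luminescence after a 7-day incubation (37 °C, 5% CO2) of HCT116 cells, MTAP-deleted or WT, on dose-response compound plates. CC50 values come from each line; where marked *, selectivity is overstated because poor solubility impaired the WT CC50 measurement.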

How did the CC50 turn out when Cc1ncn2c1c(N)nc1cnc(C(=O)N3[C@@H]4c5ccc(C(F)(F)F)cc5O[C@@H]4CC[C@@H]3C)cc12 (single isomer, unassigned) [Ff-612] was run?
The CC50 was 0.1 to 1 µM.

How did the CC50 turn out when C[C@H]1CN(C(=O)c2cc3c(cc2F)nc(N)c2cncn23)[C@H]2Cc3ccccc3[C@H]2O1 (single isomer, unassigned) [Ff-623] was run?
Its CC50 is 0.1 to 1 µM.

Which CC50 does the source give for C[C@@H]1CN(C(=O)c2ccc3nc(N)c4cncn4c3c2)[C@H]2c3cc(F)c(OC(F)(F)F)cc3C[C@H]2O1 (single isomer, unassigned) [Ff-628] here?
Its CC50 is less than 0.1 µM.

How did the CC50 turn out when [2H]C([2H])([2H])[C@@H]1CN(C(=O)c2cc3c(cc2F)nc(N)c2cncn23)[C@H]2c3ccc(C(F)(F)F)cc3C[C@H]2O1 (single isomer, unassigned) [Ff-638] was run?
Its CC50 is less than 0.1 µM.

For [2H]C([2H])([2H])[C@H]1CN(C(=O)c2cc3c(cc2F)nc(N)c2cncn23)[C@H]2c3ccc(C(F)(F)F)cc3C[C@H]2O1 (single isomer, unassigned) [Ff-639], which CC50 is on record?
The CC50 was less than 0.1 µM.

Nc1nc2cc(F)c(C(=O)N3CCC[C@@H]4Oc5cc(C(F)(F)F)ccc5[C@@H]43)cc2n2c(Cl)ncc12 (single isomer, unassigned) [Ff-646] was tested. Which CC50 did it give?
The CC50 was less than 0.1 µM.

How did the CC50 turn out when Nc1nc2cc(F)c(C(=O)N3CCC[C@@H]4Oc5cc(C(F)(F)F)ccc5[C@@H]43)cc2n2cnc(Cl)c12 (single isomer, unassigned) [Ff-647] was run?
Its CC50 is less than 0.1 µM.

With C[C@@H]1CN(C(=O)c2cc3c(cc2F)nc(N)c2cncn23)[C@@H](c2cccc(C(F)F)n2)CO1 (single isomer, unassigned) [Ff-668] as the compound, how does the CC50 read?
The CC50 was 0.1 to 1 µM.

With Cc1ncn2c1c(N)nc1ccc(C(=O)N3C[C@@H](C)O[C@@H]4Cc5cc(OC(F)(F)F)ccc5[C@@H]43)cc12 (single isomer, unassigned) [Fg-22] as the compound, how does the CC50 read?
The CC50 was less than 0.1 µM.

For Cc1ncn2c1c(N)nc1ccc(C(=O)N3C[C@H](C)O[C@@H]4Cc5cc(OC(F)(F)F)ccc5[C@@H]43)cc12 (single isomer, unassigned) [Fg-23], which CC50 is on record?
Its CC50 is less than 0.1 µM.

Same assay, conditions: Homo sapiens, HCT-116; cell viability, HCT116 MTAP-deleted; class symbols; read-out: CC50

For CN(C(=O)c1cc2c(cc1F)nc(N)c1cncn12)[C@@H]1COc2ccc([C@H]3C[C@@H]3C#N)cc21 (stereo in doubt) [Ff-263, Trans-4-amino-N-((3S)-5-(2-cyanocyclopropyl)-2,3-dihydrobenzofuran-3-yl)-7-fluoro-N-methylimidazo[1,5-a]quinoxaline-8-carboxamide], which CC50 is on record?
The CC50 was 0.1 to 1 µM.

For CN(C(=O)C1CC1)N(Cc1cc(F)c(F)cc1F)C(=O)c1cc2c(cc1F)nc(N)c1cncn12 [Fa-8, 4-amino-N′-(cyclopropanecarbonyl)-7-fluoro-N′-methyl-N-(2,4,5-trifluorobenzyl)imidazo[1,5-a]quinoxaline-8-carbohydrazide], which CC50 is on record?
Its CC50 is less than 0.1 µM.

How did the CC50 turn out when CC(=O)N(C)N(Cc1ccc(C(F)(F)F)cc1Cl)C(=O)c1cc2c(cc1F)nc(N)c1cncn12 [Fb-1, N′-acetyl-4-amino-N-(2-chloro-4-(trifluoromethyl)benzyl)-7-fluoro-N′-methylimidazo[1,5-a]quinoxaline-8-carbohydrazide] was run?
Its CC50 is less than 0.1 µM.

Cn1c(CN(C(=O)c2cc3c(cc2F)nc(N)c2cncn23)N2CCCC2=O)nc2cc(C(F)(F)F)ccc21 [Fb-7, 4-amino-7-fluoro-N-((1-methyl-5-(trifluoromethyl)-1H-benzo[d]imidazol-2-yl)methyl)-N-(2-oxopyrrolidin-1-yl)imidazo[1,5-a]quinoxaline-8-carboxamide] was tested. Which CC50 did it give?
The CC50 was less than 0.1 µM.

With CN(C(=O)c1cc2c(cc1F)nc(N)c1cncn12)[C@@H](c1ccc(C(F)(F)F)cc1)C(F)F [Fb-9, (S)-4-amino-N-(2,2-difluoro-1-(4-(trifluoromethyl)phenyl)ethyl)-7-fluoro-N-methylimidazo[1,5-a]quinoxaline-8-carboxamide] as the compound, how does the CC50 read?
Its CC50 is less than 0.1 µM.

CN(C(=O)c1cc2c(cc1F)nc(N)c1cncn12)[C@@H](c1ccc(OC(F)F)cc1F)C(F)F [Fb-10, (S)-4-amino-N-(1-(4-(difluoromethoxy)-2-fluorophenyl)-2,2-difluoroethyl)-7-fluoro-N-methylimidazo[1,5-a]quinoxaline-8-carboxamide] was tested. Which CC50 did it give?
Its CC50 is less than 0.1 µM.

Which CC50 does the source give for CN(C(=O)c1cc2c(cc1F)nc(N)c1cncn12)[C@@H](c1ccc(OC(F)(F)F)cc1F)C(F)F [Fb-11, (S)-4-amino-N-(2,2-difluoro-1-(2-fluoro-4-(trifluoromethoxy)phenyl)ethyl)-7-fluoro-N-methylimidazo[1,5-a]quinoxaline-8-carboxamide] here?
Its CC50 is less than 0.1 µM.

For CN(C(=O)c1cc2c(cn1)nc(N)c1cncn12)[C@@H](c1ccc(OC(F)(F)F)cc1F)C(F)F [Fb-12, (S)-4-amino-N-(2,2-difluoro-1-(2-fluoro-4-(trifluoromethoxy)phenyl)ethyl)-N-methylimidazo[1,5-a]pyrido[3,4-e]pyrazine-8-carboxamide], which CC50 is on record?
The CC50 was 0.1 to 1 µM.

For CN(C(=O)c1cc2c(cc1F)nc(N)c1cncn12)[C@@H](c1ccc(OC(F)(F)F)cc1)C(F)F [Fb-13, (S)-4-amino-N-(2,2-difluoro-1-(4-(trifluoromethoxy)phenyl)ethyl)-7-fluoro-N-methylimidazo[1,5-a]quinoxaline-8-carboxamide], which CC50 is on record?
Its CC50 is less than 0.1 µM.

Which CC50 does the source give for CN(C(=O)c1ccc2nc(N)c3cncn3c2c1)[C@@H](c1ccc(C(F)(F)F)cc1F)C(F)F [Fb-14, (S)-4-amino-N-(2,2-difluoro-1-(2-fluoro-4-(trifluoromethyl)phenyl)ethyl)-N-methylimidazo[1,5-a]quinoxaline-8-carboxamide] here?
The CC50 was less than 0.1 µM.

Which CC50 does the source give for CCN(C(=O)c1ccc2nc(N)c3cncn3c2c1)[C@@H](c1ccc(C(F)(F)F)cc1F)C(F)F [Fb-15, (S)-4-amino-N-(2,2-difluoro-1-(2-fluoro-4-(trifluoromethyl)phenyl)ethyl)-N-ethylimidazo[1,5-a]quinoxaline-8-carboxamide] here?
The CC50 was less than 0.1 µM.

CC(=O)N(C)N(Cc1ccn(-c2ccc(F)cc2F)n1)C(=O)c1cc2c(cc1F)nc(N)c1cncn12 [Fb-16, N′-acetyl-4-amino-N-((1-(2,4-difluorophenyl)-1H-pyrazol-3-yl)methyl)-7-fluoro-N′-methylimidazo[1,5-a]quinoxaline-8-carbohydrazide] was tested. Which CC50 did it give?
The CC50 was 0.1 to 1 µM.

CC(=O)N(C)N(Cc1ccc(C(F)(F)F)cc1Cl)C(=O)c1ccc2nc(N)c3cncn3c2c1 [Fb-17, N′-acetyl-4-amino-N-(2-chloro-4-(trifluoromethyl)benzyl)-N′-methylimidazo[1,5-a]quinoxaline-8-carbohydrazide] was tested. Which CC50 did it give?
The CC50 was less than 0.1 µM.

With [2H]C([2H])([2H])N(C(=O)c1cc2c(cc1F)nc(N)c1cncn12)[C@@H](c1ccc(C(F)(F)F)cc1F)C(F)F [Fb-18, (S)-4-amino-N-(2,2-difluoro-1-(2-fluoro-4-(trifluoromethyl)phenyl)ethyl)-7-fluoro-N-(methyl-d3)imidazo[1,5-a]quinoxaline-8-carboxamide] as the compound, how does the CC50 read?
The CC50 was less than 0.1 µM.

For CC1(C)CN(C(=O)c2cc3c(cc2F)nc(N)c2cncn23)CC1c1ccccc1 (centres unmarked) [Ff-2, (4-amino-7-fluoroimidazo[1,5-a]quinoxalin-8-yl)(3,3-dimethyl-4-phenylpyrrolidin-1-yl)methanone], which CC50 is on record?
The CC50 was 0.1 to 1 µM.

How did the CC50 turn out when Nc1nc2cc(F)c(C(=O)N3CC4CC4(c4ccc(C(F)(F)F)cc4)C3)cc2n2cncc12 (centres unmarked) [Ff-3, (4-amino-7-fluoroimidazo[1,5-a]quinoxalin-8-yl)(1-(4-(trifluoromethyl)phenyl)-3-azabicyclo[3.1.0]hexan-3-yl)methanone] was run?
The CC50 was greater than 1 µM.

Which CC50 does the source give for CN(C(=O)c1ccc2nc(N)c3cncn3c2c1)C1CCc2nc(Cl)sc21 (centres unmarked) [Ff-15, 4-amino-N-(2-chloro-5,6-dihydro-4H-cyclopenta[d]thiazol-6-yl)-N-methylimidazo[1,5-a]quinoxaline-8-carboxamide] here?
The CC50 was greater than 1 µM.

With CN(C(=O)c1cc2c(cc1F)nc(N)c1cncn12)C1CCc2nc(Cl)sc21 (centres unmarked) [Ff-16, 4-amino-N-(2-chloro-5,6-dihydro-4H-cyclopenta[d]thiazol-6-yl)-7-fluoro-N-methylimidazo[1,5-a]quinoxaline-8-carboxamide] as the compound, how does the CC50 read?
Its CC50 is 0.1 to 1 µM.

For CN(Cc1ccc(F)cc1Cl)C(=O)c1ccc2nc(N)c3cncn3c2c1 [Ff-30, 4-amino-N-(2-chloro-4-fluorobenzyl)-N-methylimidazo[1,5-a]quinoxaline-8-carboxamide], which CC50 is on record?
Its CC50 is greater than 1 µM.

With CN(Cc1ccc(F)cc1Cl)C(=O)c1cc2c(cc1F)nc(N)c1cncn12 [Ff-31, 4-amino-N-(2-chloro-4-fluorobenzyl)-7-fluoro-N-methylimidazo[1,5-a]quinoxaline-8-carboxamide] as the compound, how does the CC50 read?
Its CC50 is 0.1 to 1 µM.

For Nc1nc2cc(F)c(C(=O)N3CCOC[C@@H]3c3ccc(C(F)(F)F)cc3)cc2n2cncc12 [Ff-38, (S)-(4-amino-7-fluoroimidazo[1,5-a]quinoxalin-8-yl)(3-(4-(trifluoromethyl)phenyl)morpholino)methanone], which CC50 is on record?
Its CC50 is less than 0.1 µM.

For CN(C(=O)c1cc2c(cc1F)nc(N)c1cncn12)C1COCc2cc(C(F)(F)F)ccc21 (centres unmarked) [Ff-39, 4-amino-7-fluoro-N-methyl-N-(7-(trifluoromethyl)isochroman-4-yl)imidazo[1,5-a]quinoxaline-8-carboxamide], which CC50 is on record?
The CC50 was less than 0.1 µM.

How did the CC50 turn out when CN(C(=O)c1cc2c(cc1F)nc(N)c1cncn12)C1CCOc2cc(C(F)(F)F)ccc21 (centres unmarked) [Ff-40, 4-amino-7-fluoro-N-methyl-N-(7-(trifluoromethyl)chroman-4-yl)imidazo[1,5-a]quinoxaline-8-carboxamide] was run?
The CC50 was 0.1 to 1 µM.

Nc1nc2cc(F)c(C(=O)N3CCCC4OCc5cc(C(F)(F)F)ccc5C43)cc2n2cncc12 (centres unmarked) [Ff-43, (4-amino-7-fluoroimidazo[1,5-a]quinoxalin-8-yl)(8-(trifluoromethyl)-2,3,4,4a,6,10b-hexahydro-1H-isochromeno[4,3-b]pyridin-1-yl)methanone] was tested. Which CC50 did it give?
Its CC50 is less than 0.1 µM.

Which CC50 does the source give for Cn1cc(N(Cc2ccc(C(F)(F)F)cc2F)C(=O)c2cc3c(cc2F)nc(N)c2cncn23)cn1 [Ff-45, 4-amino-7-fluoro-N-(2-fluoro-4-(trifluoromethyl)benzyl)-N-(1-methyl-1H-pyrazol-4-yl)imidazo[1,5-a]quinoxaline-8-carboxamide] here?
The CC50 was less than 0.1 µM.
